Active and inactive are the calls of the source.
Experiments:
[1] = molecular target: T1, Sigma non-opioid intracellular receptor 1 (Homo sapiens, UniProt Q99720); experiment: Displacement of [3H]-pentazocine from sigma-1 receptor in human Jurkat cell membrane incubated for 2 hr by liquid scintillation counting method; format: cell membranes
[2] = molecular target: T2, Sigma intracellular receptor 2 (Homo sapiens, UniProt Q5BJF2); experiment: Displacement of [3H]-DTG from sigma-2 receptor in human Jurkat cell membrane at 1000 nM incubated for 1 hr by liquid scintillation counting method relative to control; format: cell membranes; conditions: filed as antagonist
T2 sequence (Q5BJF2 whole entry): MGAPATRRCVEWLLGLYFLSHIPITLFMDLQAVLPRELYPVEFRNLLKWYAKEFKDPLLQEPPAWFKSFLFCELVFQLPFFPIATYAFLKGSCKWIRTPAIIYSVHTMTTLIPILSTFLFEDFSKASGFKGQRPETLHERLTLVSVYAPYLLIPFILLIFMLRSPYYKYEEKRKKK

[3] = molecular target: T1, Sigma non-opioid intracellular receptor 1; experiment: Displacement of [3H]-pentazocine from sigma-1 receptor in human Jurkat cell membrane at 100 nM incubated for 2 hr by liquid scintillation counting method relative to control; format: cell membranes
[4] = Displacement of [3H]-DTG from sigma-2 receptor in guinea pig brain membrane incubated for 1 hr by liquid scintillation counting method; format: cell membranes, Cavia porcellus
[5] = Intrinsic clearance in rat liver microsomes at 10 uM incubated for 1 hr in presence of NADPH by LC-MS/MS analysis; format: ADME, Microsome; conditions: read-out: CLH
[6] = Intrinsic clearance in human liver microsomes at 10 uM incubated for 1 hr in presence of NADPH by LC-MS/MS analysis; format: ADME, Microsome; conditions: read-out: CLH
[7] = molecular target: T2, Sigma intracellular receptor 2; experiment: Displacement of [3H]-DTG from sigma-2 receptor in human Jurkat cell membrane incubated for 1 hr by liquid scintillation counting method; format: cell membranes
[8] = Toxicity in Sprague-Dawley rat assessed as effect on motor coordination at 100 mg/kg, ip measured at 60 to 120 mins post treatment by rotarod test; format: organism-based; conditions: in vivo, time 60-120 min
[9] = system: Rattus norvegicus; experiment: Antinociceptive activity in formalin-induced Sprague-Dawley rat model of nociceptive pain assessed as decrease in time spent on licking during late phase at 100 mg/kg, ip administered 30 mins before formalin stimulation and measured at 5 mins interval for 10 to 35 mins; format: functional, organism-based
[10] = system: Rattus norvegicus; experiment: Analgesic activity in Sprague-Dawley rat model of paclitaxel-induced neuropathic pain assessed as decrease in mechanical allodynia by measuring reduction in pain threshold at 100 mg/kg, ip measured at 0.5 to 1.5 hrs by Von Frey assay relative to control; format: functional, organism-based; conditions: time 0.5-1.5 hrs
[11] = system: Rattus norvegicus; experiment: Analgesic activity in Sprague-Dawley rat model of paclitaxel-induced neuropathic pain assessed as reduction in cold hyperalgesia by measuring increase in paw withdrawal latency at 100 mg/kg, ip measured at 1 to 2 hrs post dosing by Von Frey assay relative to control; format: functional, organism-based; conditions: time 1-2 hrs
[12] = molecular target: T3, Sigma non-opioid intracellular receptor 1 (Cavia porcellus, UniProt Q60492); experiment: Displacement of [3H]-(+)-pentazocine from sigma-1 receptor in guinea pig brain membranes incubated for 1 hr by liquid scintillation counting method; format: cell membranes, Membrane
T3 sequence (Q60492 whole entry): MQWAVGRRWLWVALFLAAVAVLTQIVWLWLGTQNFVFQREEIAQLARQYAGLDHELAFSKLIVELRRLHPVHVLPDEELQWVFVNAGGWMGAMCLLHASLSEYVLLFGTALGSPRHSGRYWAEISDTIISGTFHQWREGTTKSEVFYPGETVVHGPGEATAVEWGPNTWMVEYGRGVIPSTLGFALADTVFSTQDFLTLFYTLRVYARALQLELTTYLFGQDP

[13] = molecular target: Sigma non-opioid intracellular receptor 1 (Cavia porcellus) (UniProt Q60492); experiment: Ratio of Ki for displacement of [3H]-(+)-pentazocine from sigma-1 receptor to Ki for displacement of [3H]-(+)-pentazocine from sigma-1 receptor in guinea pig brain membranes in presence of phenytoin; format: cell membranes; conditions: Membrane
Sigma non-opioid intracellular receptor 1 (Cavia porcellus), sequence (Q60492 whole entry): as above

[14] = molecular target: T3, Sigma non-opioid intracellular receptor 1
[15] = Metabolic stability in human liver microsomes assessed as half-life at 10 uM incubated for 1 hr in presence of NADPH by LC-MS/MS analysis; format: ADME, Microsome
[16] = Metabolic stability in rat liver microsomes assessed as half-life at 10 uM incubated for 1 hr in presence of NADPH by LC-MS/MS analysis; format: ADME, Microsome

T1 sequence (Q99720 whole entry): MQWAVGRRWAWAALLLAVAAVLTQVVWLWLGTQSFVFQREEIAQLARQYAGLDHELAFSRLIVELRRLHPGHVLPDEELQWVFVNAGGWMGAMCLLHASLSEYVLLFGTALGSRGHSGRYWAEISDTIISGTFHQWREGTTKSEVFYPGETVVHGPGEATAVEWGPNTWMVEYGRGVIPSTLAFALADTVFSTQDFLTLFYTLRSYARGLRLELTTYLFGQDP

SMILES: Cn1nc(CN2CCCC2)nc1-c1ccc2c(c1)CCCC2
- Ki [1]: 0.026 µM

SMILES: Cn1nc(CN2CCCC2)nc1-c1ccc(-c2ccc(Cl)c(Cl)c2)c(Cl)c1
- Activity [2]: 79%
- Activity ([3]; filed as antagonist): 43%

SMILES: Cn1nc(CN2CCCCC2)nc1-c1ccc(C(C)(C)C)cc1
- Ki [4]: 0.441 µM

SMILES: O=C(O)Cc1ccccc1Nc1c(Cl)cccc1Cl [DICLOFENAC]
- microsomal CLint at 10 µM [5]: 196 µL/min/mg
- microsomal CLint at 10 µM [6]: 189 µL/min/mg

SMILES: Cn1nc(CN2CCCC2)nc1-c1cccc(-c2ccccc2)c1
- Ki [7]: 1 µM
- Activity ([3]; filed as antagonist): 40%

SMILES: Cc1ccc(-c2nc(CN3CCCC3)nn2C)cc1C
- Ki [7]: > 1 µM
- Activity [3]: 28%

SMILES: NCC1(CC(=O)O)CCCCC1 [GABAPENTIN]
- Activity [8]: Toxic
- Activity [9]: Active
- Activity [10]: Active
- Activity [11]: inactive

SMILES: Cn1nc(CN2CCCC2)nc1-c1ccc2ccsc2c1
- Ki [7]: > 1 µM
- Ki [1]: 0.064 µM

SMILES: Cn1nc(CN2CCCC2)nc1-c1ccc(C2CCCCC2)cc1
- Activity [2]: 89%
- Ki [1]: 0.02 µM

SMILES: Cn1nc(CN2CCCC2)nc1-c1ccc(C(F)(F)F)cc1
- Ki [7]: > 1 µM
- Ki [1]: 0.082 µM

SMILES: Cn1nc(CN2CCCC2)nc1-c1cccc(C(C)(C)C)c1
- Ki [7]: 1 µM
- Ki [1]: 0.029 µM

SMILES: COc1ccc2c(c1)[C@]13CCCC[C@@H]1[C@H](C2)N(C)CC3 [DEXTROMETHORPHAN]
- Ki [12]: 0.063 µM
- Ratio Ki [13]: 6.3
- Ki [14]: 0.01 µM

SMILES: Cn1nc(CN2CCCC2)nc1-c1ccc(Cl)cc1
- Ki [7]: > 1 µM
- Activity [3]: 31%

SMILES: Cn1nc(CN2CCCC2)nc1-c1ccc(Oc2ccccc2)cc1
- Activity [2]: 65%
- Activity [3]: 39%

SMILES: Cc1cc(OCCN2CCOCC2)nn1-c1ccc2ccccc2c1
- microsomal CLint at 10 µM [5]: 190 µL/min/mg
- Ki [12]: 0.003 µM
- Ki [4]: > 1 µM
- half-life at 10 µM [15]: 64.6 min
- half-life at 10 µM [16]: 3.6 min
- microsomal CLint at 10 µM [6]: 10.7 µL/min/mg

SMILES: Cn1nc(CN2CCCC2)nc1-c1ccc2cc(Cl)sc2c1
- Ki [7]: 1 µM

SMILES: Cn1nc(CN2CCN(c3ccccc3)CC2)nc1-c1ccc(C(C)(C)C)cc1
- microsomal CLint at 10 µM [5]: 29.8 µL/min/mg
- Ki [12]: 0.014 µM
- Ki [4]: > 1 µM
- half-life at 10 µM [15]: 37.3 min
- half-life at 10 µM [16]: 23.3 min
- microsomal CLint at 10 µM [6]: 18.6 µL/min/mg

SMILES: Cn1nc(CN2CCCC2)nc1-c1ccc(C2CC2)cc1
- Ki [7]: 1 µM
- Activity [3]: 30%
